Test results published in patent US20020173538A1, “Method for sensitizing cancer cells to cancer therapies with a mevalonate-reducing compound” (priority 2000, published 2002).
Where two headings read alike, the source gives them in different places. Marks after values point to notes of the source that are not given here.

Experiments:
[1] = MTT cell viability assay, Hep G2 cells (serum-free DMEM); settings: human, Hep G2 cells, Cell viability
Text: (§1) Human hepatoma cell lines Hep G2 and Hep 3 were chosen as the in vitro models of hepatocytes and hepatoma, respectively.

Hep G2 cells = test: as above; settings: Homo sapiens
Text: as §1

Hep 3B cells = test: MTT cell viability assay, Hep 3B cells (serum-free DMEM); settings: for viability at 1.25 µM / viability at 5 µM / viability at 10 µM / viability at 25 µM / IC50: Homo sapiens, Hep3B
Text: as §1

[2] = no lovastatin 48 hr, then CAO 1.25 μM 48 hr
[3] = no lovastatin 48 hr, then CAO 5 μM 48 hr

SMILES: CCCCCCCCOC(=O)/C=C/c1ccc(O)c(O)c1 [CAO, caffeic acid 1-octyl ester]
- viability at 96 h, 1.25 μM ([1]; CAO 1.25 μM alone, 96 hr): 74 ± 2.9%
- viability at 48 h, 1.25 μM ([1]; CAO 1.25 μM, 48 hr): 104 ± 4.6%
- viability at 72 h, 1.25 μM ([1]; CAO 1.25 μM, 72 hr): 102.7 ± 0.4%
- viability at 96 h, 5 μM ([1]; CAO 5 μM alone, 96 hr): 16.2 ± 1.2%
- viability at 48 h, 5 μM ([1]; CAO 5 μM, 48 hr): 44.2 ± 6.6%
- viability at 72 h, 5 μM ([1]; CAO 5 μM, 72 hr): 18.1 ± 2.1%
- viability at 48 h, 10 μM ([1]; CAO 10 μM, 48 hr): 5.8 ± 3.9%
- viability at 72 h, 10 μM ([1]; CAO 10 μM, 72 hr): 0%
- viability at 48 h, 25 μM ([1]; CAO 25 μM, 48 hr): 0%
- viability at 72 h, 25 μM ([1]; CAO 25 μM, 72 hr): 0%
- viability at 48 h, 1.25 μM [1, 2]: 99 ± 4.1%
- viability at 48 h, 5 μM [1, 3]: 42.8 ± 3%
- IC50 (Hep G2 cells; HepG2, 48 h, read-out: IC50 (cell viability), 48 hr): 4 µM
- IC50 (Hep G2 cells; HepG2, 72 h, read-out: IC50 (cell viability), 72 hr): 2.7 µM
- Ratio, inhibition (%) Hep 3B/inhibition (%) Hep G2 (Hep 3B cells; CAO 1.25 μM alone, 96 hr): 1.3*
- Ratio, inhibition (%) Hep 3B/inhibition (%) Hep G2 (Hep 3B cells; CAO 5 μM alone, 96 hr): 0.9
- Ratio, inhibition (%) Hep 3B/inhibition (%) Hep G2 (Hep 3B cells; CAO 5 μM, 48 hr): 0.9**
- Ratio, inhibition (%) Hep 3B/inhibition (%) Hep G2 (Hep 3B cells; CAO 5 μM, 72 hr): 1.0
- Ratio, inhibition (%) Hep 3B/inhibition (%) Hep G2 (Hep 3B cells; CAO 10 μM, 48 hr): 0.8
- Ratio, inhibition (%) Hep 3B/inhibition (%) Hep G2 (Hep 3B cells; CAO 10 μM, 72 hr): 1.0
- Ratio, inhibition (%) Hep 3B/inhibition (%) Hep G2 (Hep 3B cells; CAO 25 μM, 48 hr): 1.0*
- Ratio, inhibition (%) Hep 3B/inhibition (%) Hep G2 (Hep 3B cells; CAO 25 μM, 72 hr): 1.0
- viability at 1.25 µM (Hep 3B cells; 48 h, read-out: Cell viability, CAO 1.25 μM, 48 hr): 97.8 ± 4.1%
- viability at 5 µM (Hep 3B cells; 48 h, read-out: Cell viability, CAO 5 μM, 48 hr): 52 ± 1.8%
- viability at 10 µM (Hep 3B cells; 48 h, read-out: Cell viability, CAO 10 μM, 48 hr): 21.7 ± 3.9%
- viability at 25 µM (Hep 3B cells; 48 h, read-out: Cell viability, CAO 25 μM, 48 hr): 3.9 ± 1.3%
- IC50 (Hep 3B cells; 48 h, read-out: IC50 (cell viability), 48 hr): 5.3 µM
- viability at 1.25 µM (Hep 3B cells; 72 h, read-out: Cell viability, CAO 1.25 μM, 72 hr): 89.8 ± 0.6%
- viability at 5 µM (Hep 3B cells; 72 h, read-out: Cell viability, CAO 5 μM, 72 hr): 16.3 ± 2.6%
- viability at 10 µM (Hep 3B cells; 72 h, read-out: Cell viability, CAO 10 μM, 72 hr): 2.4 ± 1.6%
- viability at 25 µM (Hep 3B cells; 72 h, read-out: Cell viability, CAO 25 μM, 72 hr): 0%
- IC50 (Hep 3B cells; 72 h, read-out: IC50 (cell viability), 72 hr): 2.9 µM
- viability at 1.25 µM (Hep 3B cells; 96 h, read-out: Cell viability, CAO 1.25 μM alone, 96 hr): 66.9 ± 2.9%
- viability at 5 µM (Hep 3B cells; 96 h, read-out: Cell viability, CAO 5 μM alone, 96 hr): 20.1 ± 5.7%
- Cell viability (Hep 3B cells; [2]): 83.0 ± 4.4^b % of control
- Ratio, inhibition (%) Hep 3B/inhibition (%) Hep G2 (Hep 3B cells; [2]): 17.0***
- Cell viability (Hep 3B cells; [3]): 53.2 ± 4.5^d % of control
- Ratio, inhibition (%) Hep 3B/inhibition (%) Hep G2 (Hep 3B cells; [3]): 0.8*
